{"source": "patent US20030109548A1", "about": "“Compositions and methods of treating iron excess” (priority 2001, published 2003)", "key": {"[1]": {"experiment": "Micelle formation upon mixing with FeCl3 (brightfield microscopy)", "assay_type": "physicochemical", "details": "0.2 M in ethanol mixed with 0.2 M FeCl3 in ethanol, 3/1 ratio, reduced to half volume", "description": "Micelle formation. […] Also, synthesized pseudan IX, 0.2 M in ethanol, was mixed with 0.2 M FeCl3 in ethanol in a 3/1 ratio. Following reduction to half the volume using a nitrogen bubbler, micelles were observed as above. An Olympus BX-60 microscope and an Optronics DEI 750 camera were used."}, "[2]": {"details": "isolated from filtrates of 4 to 6 week old culture of P. aeruginosa; cited from earlier work"}}, "data": [{"smiles": "CCCCCCCCCc1cc(O)c2ccccc2n1", "note": "[pseudan IX, 4-hydroxy-2-nonylquinoline]", "values": [{"measurement": "micelle formation with iron", "setting": "[1]", "value": "Pink micelles, albeit smaller, are also evident"}, {"measurement": "antibiotic activity", "setting": "[2]", "value": "shown to exhibit antibiotic activity"}]}]}
